# Data from publication PMC11247627, “Evaluation of Antibacterial Functionalized Dihydropyrimidine Photoaffinity Probes Toward Mechanism of Action Studies” (ACS Medicinal Chemistry Letters, 2024).
# Read-outs that look alike come from different tables or passages of the source.
# Experiments:
# Assay type in all cases: cell-based
# [1] = test system: Staphylococcus aureus ATCC 12600; experiment: Antibacterial broth microdilution assay (MIC), methicillin-sensitive S. aureus ATCC 12600; conditions: for MIC: Staphylococcus aureus, read-out: MIC ATCC 12600
# Method: (§1) These 24 DHP analogues were then screened for inhibition of Staphylococcus aureus growth using microdilution assays. Growth inhibition was examined in methicillin-sensitive S. aureus (ATCC 12600) and two strains of MRSA (ATCC 33591 and ATCC 43300). Antibiotic controls were included in the screen, including carbenicillin, erythromycin, gentamycin, trimethoprim, and vancomycin, and minimum inhibitory concentrations (MICs) were determined for each compound, which were defined as the concentration required to inhibit >95% of bacterial growth (Table 1).
# (§2) Antibacterial Microdilution Assay (MIC Determination)
# (§3) 1240 The MIC determination assays were performed in a BSL-2 laboratory with appropriate security and biosafety measures. The MICs were determined using a broth microdilution assay closely following the guidelines of the Clinical and Laboratories Standards Institute (CLSI). MICs were determined in duplicate for two biological replicates using 2-fold serial dilutions of test compounds or commercial antibiotics in cation-adjusted Mueller-Hinton broth. The central 60 wells of 96-well plates were 1245 prepared with the compound of interest at the indicated concentration, where 2 µL of the compound in DMSO were added prior to the addition of the culture. Overnight cultures of the different Staphylococcus aureus strains were diluted to provide an initial inoculum of approximately 5 X 10 5 CFU/mL that was delivered to each well in 198 µL of culture (final DMSO concentration of ~1%). Initial inoculum concentrations were verified by plating to count CFU/mL. Each plate was equipped with 1250 experimental controls for full growth (6 wells) and full growth inhibition (6 wells), and all control wells were in the presence of 1% DMSO. The outer 36 wells were filled with 200 µL of culture each to prevent growth effects on the interior 60 wells. The plates were incubated at 37 °C for 18 hours, at which time they were removed from the incubator and were allowed to equilibrate to room temperature for 30 minutes. Absorbance of each well at 600 nm was then read using a microplate reader to 1255 determine the MIC, and visual confirmation of growth inhibition was also performed. If variation was seen in the experimental values, the highest value of two independent trials was listed.
# [2] = test system: Staphylococcus aureus ATCC 33591 (MRSA); experiment: Antibacterial broth microdilution assay (MIC), MRSA ATCC 33591; conditions: 18 h; for MIC: Staphylococcus aureus, read-out: MIC ATCC 33591
# Method: as §1, §2, §3
# [3] = test system: Staphylococcus aureus ATCC 43300 (MRSA); experiment: Antibacterial broth microdilution assay (MIC), MRSA ATCC 43300; conditions: 18 h; for MIC: Staphylococcus aureus, read-out: MIC ATCC 43300
# Method: as §1, §2, §3
# Staphylococcus aureus = experiment: S. aureus growth inhibition (all three strains or strain not specified); conditions: for antibacterial potency of alkynyl esters compared to their ethyl variants: MIC comparison, Table 3; for MIC: Staphylococcus aureus, read-out: concentration inhibiting S. aureus growth (MIC)
# Method: as §1, §2, §3
# [4] = ATCC12600, amount inhibiting >95% of growth (A600), 18 h, suffix 'I' = partial growth inhibition at the value, >95% at higher concentrations
# [5] = amount inhibiting >95% of growth (A600), suffix 'I' = partial growth inhibition at the value, >95% at higher concentrations
# [6] = all three S. aureus strains or strain not specified
Compound,"MIC [1, 4] [µg/mL]","MIC [2, 5] [µg/mL]","MIC [3, 5] [µg/mL]",other results
"CC[C@H]1OC(=O)[C@H](C)[C@@H](O[C@H]2C[C@@](C)(OC)[C@@H](O)[C@H](C)O2)[C@H](C)[C@@H](O[C@@H]2O[C@H](C)C[C@H](N(C)C)[C@H]2O)[C@](C)(O)C[C@@H](C)C(=O)[C@H](C)[C@@H](O)[C@]1(C)O [erythromycin, reference compound]",0.5,> 512,> 512,
CCOC(=O)C1=C(c2ccccc2)NC(N)=NC1c1ccc(C(F)(F)F)cc1 (stereo not drawn) [6e],16,16,16,
gentamycin [reference compound],,,,"MIC ATCC 12600 ([1]; amount inhibiting >95% of growth (A600), 18 h, suffix 'I' = partial growth inhibition at the value, >95% at higher concentrations): 4 µg/mL; MIC ATCC 33591 [2, 5]: 4 µg/mL; MIC ATCC 43300 [3, 5]: 128 µg/mL"
CCOC(=O)C1=C(c2ccccc2)NC(N)=NC1c1cccc([N+](=O)[O-])c1 (stereo not drawn) [6b],64,,,
C#CCCOC(=O)C1=C(c2ccccc2)NC(N)=NC1c1ccc(C2(C(F)(F)F)N=N2)cc1 (stereo not drawn) [26e],8,,8,antibacterial potency of alkynyl esters compared to their ethyl variants (Staphylococcus aureus): 2-fold decreased potency
CCOC(=O)C1=C(c2ccccc2)NC(N)=NC1c1ccc([N+](=O)[O-])cc1 (stereo not drawn) [6c],64,64,64,
CCOC(=O)C1=C(c2ccccc2)NC(N)=NC1c1cccc(OC)c1 (stereo not drawn) [6t],> 64,> 64,> 64,
C#CCCCOC(=O)C1=C(c2ccccc2)NC(N)=NC1c1ccc(C2(C(F)(F)F)N=N2)cc1 (stereo not drawn) [26g],4,,4,antibacterial potency of alkynyl esters compared to their ethyl variants (Staphylococcus aureus): equal potency
CCOC(=O)C1=C(c2ccc(C3(C(F)(F)F)N=N3)cc2)NC(N)=NC1c1ccc(CC(C)C)cc1 (stereo not drawn) [26c],2,,2,
CCOC(=O)C1=C(c2ccccc2)NC(N)=NC1c1ccccc1[N+](=O)[O-] (stereo not drawn) [6a],> 64,> 64,> 64,
CCOC(=O)C1=C(c2ccc(C3(C(F)(F)F)N=N3)cc2)NC(N)=NC1c1cc(Cl)cc(Cl)c1 (stereo not drawn) [26b],4,,4,
CCOC(=O)C1=C(c2ccccc2)NC(N)=NC1c1ccccc1F (stereo not drawn) [6f],> 64,> 64,> 64,
"CC1(C)S[C@@H]2[C@H](NC(=O)C(C(=O)O)c3ccccc3)C(=O)N2[C@H]1C(=O)O (stereo partly drawn) [carbenicillin, reference compound]",2,128,32,
CCOC(=O)C1=C(c2ccccc2)NC(N)=NC1c1c(C)cccc1C (stereo not drawn) [6n],,64,,
CCOC(=O)C1=C(c2ccccc2)NC(N)=NC1c1ccc(C2(C(F)(F)F)N=N2)cc1 (stereo not drawn) [26a],4,,4,
CCOC(=O)C1=C(c2ccccc2)NC(N)=NC1c1ccc(C)cc1 (stereo not drawn) [6m],> 64,> 64,> 64,
CCOC(=O)C1=C(CC)NC(N)=NC1c1ccc(-c2ccccc2)cc1 (stereo not drawn) [7d],,8,,
CCOC(=O)C1=C(c2ccccc2)NC(N)=NC1c1cccc(C(F)(F)F)c1 (stereo not drawn) [6d],32,32,32,
CCOC(=O)C1=C(c2ccccc2)NC(N)=NC1c1cc(OC)cc(OC)c1 (stereo not drawn) [6v],> 64,> 64,> 64,
C#CCCCOC(=O)C1=C(c2ccccc2)NC(N)=NC1c1cc(Cl)cc(Cl)c1 (stereo not drawn) [26f],4,,4,antibacterial potency of alkynyl esters compared to their ethyl variants (Staphylococcus aureus): 2-fold increased potency
O=Cc1ccc(C2(C(F)(F)F)N=N2)cc1 [compound 25],> 64,,> 64,MIC (Staphylococcus aureus; [6]): > 64 µg/mL
C#CCCCOC(=O)C1=C(c2ccc(C3(C(F)(F)F)N=N3)cc2)NC(N)=NC1c1ccc(CC(C)C)cc1 (stereo not drawn) [26h],2,,2,antibacterial potency of alkynyl esters compared to their ethyl variants (Staphylococcus aureus): equal potency; MIC (Staphylococcus aureus; [6]): 2 µg/mL
CCOC(=O)C1=C(c2cccc(C)c2)NC(N)=NC1c1ccc(CC(C)C)cc1 (stereo not drawn) [7j],4,4,4,
C#CCCOC(=O)C1=C(c2ccccc2)NC(N)=NC1c1cc(Cl)cc(Cl)c1 (stereo not drawn) [26d],16,,16,antibacterial potency of alkynyl esters compared to their ethyl variants (Staphylococcus aureus): 2-fold decreased potency
"CN[C@H](CC(C)C)C(=O)N[C@H]1C(=O)N[C@@H](CC(N)=O)C(=O)N[C@H]2C(=O)N[C@H]3C(=O)N[C@H](C(=O)N[C@H](C(=O)O)c4cc(O)cc(O)c4-c4cc3ccc4O)[C@H](O)c3ccc(c(Cl)c3)Oc3cc2cc(c3O[C@@H]2O[C@H](CO)[C@@H](O)[C@H](O)[C@H]2O[C@H]2C[C@](C)(N)[C@H](O)[C@H](C)O2)Oc2ccc(cc2Cl)[C@H]1O [vancomycin, reference compound]",,,,"MIC ([1]; ATCC12600, 18 h): 2 µg/mL; MIC [2]: 2 µg/mL; MIC [3]: 2 µg/mL; MIC (Staphylococcus aureus): 2 µg/mL"
CCOC(=O)CC(=O)c1ccc(C2(C(F)(F)F)N=N2)cc1 [compound 11],> 64,,> 64,MIC (Staphylococcus aureus; [6]): > 64 µg/mL
CCOC(=O)C1=C(c2ccccc2)NC(N)=NC1c1ccc(C)c(C)c1 (stereo not drawn) [6p],,,32,
CCOC(=O)C1=C(c2ccccc2)NC(N)=NC1c1cc(C)cc(C)c1 (stereo not drawn) [6q],> 64,> 64,> 64,
